This passage reports TGI results from PubChem BioAssay (NCI).

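Values below derive from 48-hour exposures of cells grown in 96-well plates, with endpoints linearly interpolated between the two concentrations bracketing the appropriate inhibition level. TGI: total growth inhibition.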

The TGI is the concentration at which net growth stops. A high value points to less potent growth arrest.

Assay in all cases: DTP human tumour cell line panel, 48 h
For test [1], the system named is MDA-MB-231 breast.
In test [2] the test system is SF-295 CNS.
Test [3] relates to SK-MEL-5 melanoma.
The test system of test [4] is MDA-MB-435.
The test system of test [5] is OVCAR-4 ovarian.
Test [6] deals with IGROV1 ovarian.
Test [7] concerns OVCAR-8 ovarian.
Test [8] concerns A549 NSCLC.
Test [9] concerns MCF7 breast.
The subject of test [10] is COLO 205 colon.
Test [11] concerns CCRF-CEM leukemia.
In test [12] the test system is U251 CNS.

On to `CCOC(=O)c1csc(-c2cn(C)c3c2C(=O)C(OC)=CC3=O)n1`, for which the TGI in [1] is 57.8 µM; in test [2], 96.9 µM; in test [3] it was 12.7 µM; in test [4], 11.1 µM; in [5] it was above 100 µM; in test [6] it was above 100 µM. The TGI is above 100 µM in test [7]; 97.1 µM in [8]; 69.8 µM in test [9]; above 89.6 µM in [10]; above 100 µM in test [11]; above 100 µM in test [12].

Regarding `COC(=O)/C(C#N)=C/c1cc(C(C)(C)C)c(O)c(C(C)(C)C)c1`, the TGI in test [1] is 4.95 µM; in test [2], 6.74 µM; in [3], 3.39 µM; in test [4], 18.4 µM; in [5], above 51.2 µM; in test [6], above 100 µM. Further, the TGI in test [7] was 33.6 µM; in test [8], above 100 µM; in test [9] it was 15.7 µM; in test [10], 2.78 µM; in [11], 9.69 µM; in test [12] it was 11.5 µM.

`O=c1c2ccccc2nc(N/N=C/c2ccc(Cl)cc2)n1-c1ccccc1`: the TGI in test [1], in test [2], in test [3], in test [4], in test [5] and in test [6] was above 100 µM throughout. The TGI in test [7], in test [8], in test [9], in test [10], in test [11] and in test [12] was above 100 µM throughout.

In the case of `Cc1nn(C(=O)c2ccc(Cl)cc2)c2c1C(c1ccc(Cl)cc1)SC(N)=N2` (configuration not stated), the TGI in test [1], in test [2], in test [3], in test [4], in test [5] and in [6] was above 10 µM in each case. For the same compound, the TGI in test [7], in test [8], in [9], in [10], in [11] and in [12] was above 10 µM in each case.

For the compound `COc1cc(OC)nc(-n2c(N)c(C(=O)O)c3ccc([N+](=O)[O-])cc3c2=O)n1`, the TGI in test [1], in test [2], in [3], in test [4], in [5] and in test [6] was above 100 µM throughout. For the same compound, the TGI in test [7], in [8], in test [9], in test [10], in test [11] and in test [12] was above 100 µM each time.

Consider `CN1CCN(Cc2ccccc2)CC1CC#N` (configuration not stated), for which the TGI in [1], in test [2], in [3], in [4], in [5] and in test [6] was above 100 µM throughout. Also, the TGI in test [7], in [8], in [9], in test [10], in test [11] and in test [12] was above 100 µM in each case.

On to `COc1ccc(NC(=O)NNS(=O)(=O)c2ccc(C)cc2)cc1`, for which the total growth inhibition concentration (TGI) in [1], in test [2], in test [3], in test [4], in test [5] and in test [6] was above 100 µM each time. In addition, the TGI in [7], in test [8], in test [9], in test [10], in [11] and in test [12] was above 100 µM each time.

For `COc1cccc(CCn2c(N)c(C#N)c3ccc([N+](=O)[O-])cc3c2=O)c1`, the TGI in [1] is above 46.4 µM; in test [2], above 31.6 µM; in test [3], above 100 µM; in test [4], above 100 µM; in test [5], above 100 µM; in test [6], above 31.6 µM. For the same compound, the TGI is above 46.4 µM in test [7]; above 46.4 µM in test [8]; above 31.6 µM in test [9]; above 100 µM in test [10]; above 31.6 µM in [11]; above 100 µM in test [12].

In the case of `COC1(OC)C2C=CC1C([C@](C)(N)CO)C2` (some centres not stated), the TGI in test [1], in test [2], in [3], in [4], in test [5] and in test [6] was above 100 µM in each case. Also, the TGI in test [7], in [8], in test [9], in test [10], in test [11] and in test [12] was above 100 µM in each case.

On to `Cc1cnc2[nH]c(-c3ccc(Cl)cc3)cc(=O)c2c1`, for which the TGI in test [1] was above 19.9 µM; in test [2], 23 µM; in [3] it was above 100 µM; in [4], 1.97 µM; in test [5] it was above 100 µM; in [6], above 100 µM. Further, the TGI in test [7] was above 100 µM; in test [8], above 100 µM; in test [9], above 72.5 µM; in [10] it was above 100 µM; in [11], above 100 µM; in test [12] it was above 32.4 µM.

As to `COC(=O)[C@H](C)N(C)C(=O)[C@H](C)N1[C@@H](c2ccccc2)COC1(C)C`, the TGI in test [1], in test [2], in test [3], in [4], in test [5] and in test [6] was above 100 µM throughout. Moreover, the TGI in test [7], in [8], in [9], in test [10], in test [11] and in test [12] was above 100 µM each time.
